Key:
[1] = Change of blood pressure, intravenous administration, anesthetized dog; assay type: in vivo; design: unit not given here; details: femoral artery
Protocol: (§1) The change of blood flow in coronary artery and the change of blood pressure were measured by a method according to Yakura et al., [Japan Journal of Pharmacology, Vol. 57, pages 380-391 (1961)] and according to Taira, et al. [Clin. Exp. Pharmacol. Physiol., Vol. 6, pages 301-316, (1976)].
(§2) An adult bastard dog of either sex weighing 8-13 kg was anesthetized with sodium pentobarbital at the rate of 30 mg/kg by intraveneous administration, then the dog was fixed in supination and was theracotomized under a condition of forced breathing. After another intraveneous administration of sodium heparin at the rate of 500 U/kg, 100 U/kg per hour, the dog was subjected to the following experiments.
(§3) (2) Intraveneous administration
(§4) Morawitz's cannula was cannulated to the coronary sinus venosus through the auricula dextra cordis, and the blood in vein was circulated to the right carotid. The blood flow was measured by an electromagnetic blood flow meter equipped with a blood flow observation probe in the extracorporeal circulation path of the vein. The systolic force was measured by a systolometer (pick-up) placed at the left ventricle of heart, the blood pressure was measured from the femoral artery, and the heart rate was measured from the pulse. A compound to be tested was administered through the cannula being cannulated in femoral vein. The increased amount of the blood flow in coronary artery after the administration of the test compound is shown in Table 4, also the change of blood pressure is shown in Table 5.

[2] = tested on: collagen-induced aggregation in rabbit platelets; experiment: Inhibition of collagen-induced platelet aggregation in rabbit platelet rich plasma; assay type: cell-based; details: Oryctolagus cuniculus, read-out: Inhibition rate of collagen-induced aggregation; for inhibition at 100 µM (stock): Concentration of the test compound solution 10^-4 mole; for inhibition at 10 µM (stock): Concentration of the test compound solution 10^-5 mole
Protocol: (§5) The platelet aggregation inhibitory effect was measured by using a Platelet Aggregation Tracer Model PAT-6M (manufactured by Nikoh Bio-Science Co., Ltd.) by a method according to Kimura, et al., [IGAKU-NO-AYUMI (Progress in Medicine), Vol. 114, No. 9, pp. 718-727, Aug. 30, 1980, and Nature, pp. 927-929, 1962].
(§6) The blood sample used for the test was a 1:9 (by volume) mixture of "3.8%-CITRATE"® (a registered trademark for 3.8%-sodium citrate, manufactured by Green Cross Corp.) and whole blood collected from rabbits. Said sample was subjected to 10-minute centrifugal separation at 1,000 r.p.m. (200xG) to obtain a platelet rich plasma (PRP). The PRP thus obtained was separated, and the remaining blood sample was further subjected to 15-minute centrifugal separation at 3,000 r.p.m. (2,000xG) to obtain a platelet poor plasma (PPP).
(§7) The number of platelets in the PRP was counted by the Brecher-Clonkite Method, and the PRP was diluted with the PPP to prepare a PRP sample with a platelet concentration of 600,000/microliter to prepare for an adenosine diphosphate (ADP)-induced aggregation test, and a collagen-induced aggregation test. 0.2 Milliliter of the PRP sample was added to 2 microliters of a solution of a test compound of predetermined concentration and this mixture was placed in a 37° C. thermostat for one minute. Then 20 microliters of an ADP or collagen solution was added to the mixture. In this test, the ADP solution was prepared by adjustment to a concentration of 7.5×10^-5 M by using Auren-Beronal buffer solution (pH 7.35). Further, the collagen solution was prepared by adjustment to a concentration of 200 micrograms/ml by using collagen reagent of "Holm"® (manufactured by Hormon-Chemie Munchen, GmbH.) which was diluted wih a physiological saline solution.
(§8) The transmittance of the resultant test mixture was determined and the change of transmittance was recorded by using the aggregometer at a stirrer speed of 1,100 r.p.m.
(§9) The platelet aggregation inhibitory effect of the test compound was measured in terms of inhibition rate (%) with respect to the aggregation rate of the controls. The aggregation rate was calculated from the following formula.
(§10) Aggregation rate=[(c-a)/(b-a)]×100
(§11) The percent inhibition is calculated from the following formula.
(§12) Inhibition rate (%)=[(A-B)/A]×100
(§13) The inhibitory effect of the test compounds on collagen-induced aggregation in rabbit platelets is shown in Table 1, similarly such effect on ADP-induced aggregation in rabbit platelets is shown in Table 2.

[3] = tested on: ADP-induced aggregation in rabbit platelets; experiment: Inhibition of ADP-induced platelet aggregation in rabbit platelet rich plasma; assay type: cell-based; details: Oryctolagus cuniculus, read-out: Inhibition rate of ADP-induced aggregation; for inhibition at 100 µM (stock): Concentration of the test compound solution 10^-4 mole; for inhibition at 10 µM (stock): Concentration of the test compound solution 10^-5 mole
Protocol: as §5, §6, §7, §8, §9, §10, §11, §12, §13

[4] = tested on: coronary artery; experiment: Increased amount of the blood flow in coronary artery, intravenous administration, anesthetized dog; assay type: in vivo
Protocol: as §1, §2, §3, §4

| SMILES | Change of blood pressure ([1]; 30 micrograms/kg) | Change of blood pressure ([1]; 100 micrograms/kg) | Change of blood pressure ([1]; 300 micrograms/kg) | inhibition at 100 µM (stock) [2] [%] | inhibition at 100 µM (stock) [3] [%] | Change of blood pressure ([1]; 3 micrograms/kg) | Change of blood pressure ([1]; 10 micrograms/kg) | other results |
| --- | --- | --- | --- | --- | --- | --- | --- | --- |
| COC(=O)C1=C(C)NC(C)=C(C(=O)OCCOc2ccc3[nH]c(=O)ccc3c2)C1c1ccccc1[N+](=O)[O-] (stereo not drawn) [Compound 20, 6-{2-[2,6-Dimethyl-5-methoxycarbonyl-4-(2-nitrophenyl)-1,4-dihydropyridin-3-carboxy]-ethoxy}carbostyril] | -4 | -8 | -32 | 100 | 100 | – | – | inhibition at 10 µM (stock) [2]: 100%; inhibition at 10 µM (stock) [3]: 65% |
| C=CCOc1ccc(OCCCCOC(=O)C2=C(C)NC(C)=C(C(=O)OC)C2c2cccc([N+](=O)[O-])c2)c2c1NC(=O)CC2 (stereo not drawn) [Compound 19, 5-{4-[2,6-Dimethyl-5-methoxycarbonyl-4-(3-nitrophenyl)-1,4-dihydropyridin-3-carboxy]-butoxy}-8-alloyloxy-3,4-dihydrocarbostyril] | -44 | -55 | – | 17 | 17 | -22 | -34 | – |
| COC(=O)C1=C(C)NC(C)=C(C(=O)OCCCCOc2cccc3c2CCC(=O)N3)C1c1cccc([N+](=O)[O-])c1 (stereo not drawn) [Compound 17, 5-{4-[2,6-Dimethyl-5-methoxycarbonyl-4-(3-nitrophenyl)-1,4-dihydropyridin-3-carboxy]-butoxy}-3,4-dihydrocarbostyril] | -14 | -55 | -76 | – | – | – | -4 | – |
| COC(=O)C1=C(C)NC(C)=C(C(=O)OCCCCOc2ccc3c(c2)CCC(=O)N3)C1c1cccc([N+](=O)[O-])c1 (stereo not drawn) [Compound 16, 6-{4-[2,6-Dimethyl-5-methoxycarbonyl-4-(3-nitrophenyl)-1,4-dihydropyridin-3-carboxy]-butoxy}-3,4-dihydrocarbostyril] | -27 | – | -54 | – | – | -3 | -12 | – |
| COC(=O)C1=C(C)NC(C)=C(C(=O)OCCOc2ccc3c(c2)NC(=O)CC3)C1c1cccc([N+](=O)[O-])c1 (stereo not drawn) [Compound 14, 7-{2-[2,6-Dimethyl-5-methoxycarbonyl-4-(3-nitrophenyl)-1,4,-dihydropyridin-3-carboxy]-ethoxy}-3,4-dihydrocarbostyril] | -2 | -14 | -32 | – | – | – | – | – |
| COC(=O)C1=C(C)NC(C)=C(C(=O)OCCCCOc2ccc3c(c2)CCC(=O)N3)C1c1ccc(Cl)cc1Cl (stereo not drawn) [Compound 42, 6-{4-[2,6-Dimethyl-5-methoxycarbonyl-4-(2,4-dichlorophenyl)-1,4-dihydropyridin-3-carboxy]butoxy}-3,4-dihydrocarbostyril] | – | – | – | 39 | 26 | – | – | – |
| COC(=O)C1=C(C)NC(C)=C(C(=O)OCCCCOc2ccc3c(c2)CCC(=O)N3)C1c1ccccc1C(F)(F)F (stereo not drawn) [Compound 25, 6-{4-[2,6-Dimethyl-5-methoxycarbonyl-4-(2-trifluoromethylphenyl)-1,4-dihydropyridin-3-carboxy]butoxy}-3,4-dihydrocarbostyril] | -46 | – | – | – | – | -9 | -34 | – |
| COC(=O)C1=C(C)NC(C)=C(C(=O)OCCOc2cccc3c2NC(=O)CC3)C1c1cccc([N+](=O)[O-])c1 (stereo not drawn) [Compound 13, 8-{2-[2,6-Dimethyl-5-methoxycarbonyl-4-(3-nitrophenyl)-1,4-dihydropyridin-3-carboxy]-ethoxy}-3,4-dihydrocarbostyril] | -32 | -52 | – | – | – | -7 | -16 | – |
| COC(=O)C1=C(C)NC(C)=C(C(=O)OCCCCOc2ccc3c(c2)CCC(=O)N3)C1c1cc(OC)c(OC)c(OC)c1 (stereo not drawn) [Compound 41, 6-{4-[2,6-Dimethyl-5-methoxycarbonyl-4-(3,4,5-trimethoxyphenyl)-1,4-dihydropyridin-3-carboxy]butoxy}-3,4-dihydrocarbostyril] | – | – | – | 35 | 30 | – | – | – |
| CCCOc1ccc(OCCCOC(=O)C2=C(C)NC(C)=C(C(=O)OC)C2c2cccc([N+](=O)[O-])c2)c2c1NC(=O)CC2 (stereo not drawn) [Compound 11, 5-{3-[2,6-Dimethyl-5-methoxycarbonyl-4-(3-nitrophenyl)-1,4-dihydropyridin-3-carboxy]-propoxy}-8-propoxy-3,4-dihydrocarbostyril] | -33 | -41 | -48 | – | 11 | -5 | -18 | Increased amount of the blood flow in coronary artery ([4]; 3 micrograms/kg): 7 mL/min; Increased amount of the blood flow in coronary artery ([4]; 10 micrograms/kg): 26 mL/min; Increased amount of the blood flow in coronary artery ([4]; 30 micrograms/kg): 58 mL/min; Increased amount of the blood flow in coronary artery ([4]; 100 micrograms/kg): 56 mL/min; Increased amount of the blood flow in coronary artery ([4]; 300 micrograms/kg): 73 mL/min |
| COC(=O)C1=C(C)NC(C)=C(C(=O)OCCCCOc2ccc3c(c2)CCC(=O)N3)C1c1ccc(OC)c(OC)c1 (stereo not drawn) [Compound 40, 6-{4-[2,6-Dimethyl-5-methoxycarbonyl-4-(3,4-dimethoxyphenyl)-1,4-dihydropyridin-3-carboxy]butoxy}-3,4-dihydrocarbostyril] | – | – | – | 15 | 14 | – | – | – |
| C#CCOc1ccc(OCCCOC(=O)C2=C(C)NC(C)=C(C(=O)OC)C2c2cccc([N+](=O)[O-])c2)c2c1NC(=O)CC2 (stereo not drawn) [Compound 12, 5-{3-[2,6-Dimethyl-5-methoxycarbonyl-4-(3-nitrophenyl)-1,4-dihydropyridin-3-carboxy]-propoxy}-8-(2-propynyloxy)-3,4-dihydrocarbostyril] | -23 | -49 | – | – | 14 | – | -5 | Increased amount of the blood flow in coronary artery ([4]; 3 micrograms/kg): 5 mL/min; Increased amount of the blood flow in coronary artery ([4]; 10 micrograms/kg): 30 mL/min; Increased amount of the blood flow in coronary artery ([4]; 30 micrograms/kg): 74 mL/min; Increased amount of the blood flow in coronary artery ([4]; 100 micrograms/kg): 63 mL/min |
| COC(=O)C1=C(C)NC(C)=C(C(=O)OCC(COc2ccc3c(c2)CCC(=O)N3)OC(C)=O)C1c1cccc([N+](=O)[O-])c1 (stereo not drawn) [Compound 23, 6-{3-[2,6-Dimethyl-5-methoxycarbonyl-4-(3-nitrophenyl)-1,4-dihydropyridin-3-carboxy]-2-acetoxypropoxy}-3,4-dihydrocarbostyril] | – | – | – | 100 | 79 | – | – | inhibition at 10 µM (stock) [2]: 29%; inhibition at 10 µM (stock) [3]: 29% |
| COC(=O)C1=C(C)NC(C)=C(C(=O)OCC(O)COc2ccc3c(c2)CCC(=O)N3)C1c1cccc([N+](=O)[O-])c1 (stereo not drawn) [Compound 39, 6-{3-[2,6-Dimethyl-5-methoxycarbonyl-4-(3-nitrophenyl)-1,4-dihydropyridin-3-carboxy]-2-hydroxypropoxy}-3,4-dihydro-carbostyril] | – | – | – | 100 | 76 | – | – | inhibition at 10 µM (stock) [2]: 19% |

— patent publication US4564619A, “Carbostyril derivative” (Otsuka Pharmaceutical Co., Ltd., priority 1982, dated 1986)
